Holding throughout (experiment): NCI anticancer screen, dose series, 48 h
Assay [1] has as its system MCF7 breast.
Assay [2] relates to SF-268 CNS.
The subject of assay [3] is PC-3 prostate.
Assay [4] relates to A549 NSCLC.
The test system of assay [5] is HCT-15 colon.
In assay [6] the test system is LOX IMVI melanoma.
Assay [7] deals with MOLT-4 leukemia.
For assay [8], the system named is EKVX NSCLC.

Each structure is given as a SMILES string.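 Tested at 5 concentrations; 48 h exposure; 96-well plates; endpoints linearly interpolated, else capped at highest concentration. GI50 is the concentration that inhibits growth by half. At the TGI there is no net growth.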 Where a SMILES comes first, the peptide text is derived from it. The star is where a group is joined. Fmoc = O=C(OCC1c2ccccc2-c2ccccc21)*; Boc = CC(C)(C)OC(=O)*

The values that follow come from PubChem BioAssay (NCI).

As to `CCOC(=O)c1ccc(C(=O)/C(C(C)=O)=C2\CCCN2C)n1C`, the TGI in assay [1], in assay [2], in assay [3], in assay [4], in assay [5] and in assay [6] was more than 100 µM each time. For the same compound, the TGI in assay [7] and in assay [8] was more than 100 µM each time.

With `COc1ccc(C(SCCO)(c2ccccc2)c2ccccc2)cc1`, the TGI in assay [1] came out at 25 µM; in assay [2] it was 31.7 µM; in assay [3], 25.4 µM; in assay [4], 24.6 µM; in assay [5] it was 28.7 µM; in assay [6] it was 39.7 µM. Further, the TGI was more than 100 µM in assay [7] and 28.3 µM in assay [8].

On to `N#CCCC1(CCC#N)CCCCCCCCC(CCC#N)(CCC#N)C(=O)C1=O`, for which the TGI in assay [1], in assay [2], in assay [3], in assay [4], in assay [5] and in assay [6] was more than 100 µM in each case. Moreover, the TGI in assay [8] is more than 100 µM.

As for `CCCCCCCCCCCCCC[S+](C)C`, the TGI in assay [1] is 4.67 µM; in assay [2], 3.99 µM; in assay [3], 2.98 µM; in assay [4], 4.14 µM; in assay [5] it was more than 10 µM; in assay [6] it was 4.34 µM. Further, the figures for the TGI in assay [7] and in assay [8] were 2.85 µM and 9.87 µM, respectively.

Consider `CC(=O)N(O)[C@@H]1CC[C@H](n2cnc3c(N)ncnc32)C1`, for which the TGI in assay [1], in assay [2], in assay [3], in assay [4], in assay [5] and in assay [6] was more than 100 µM in each case. The TGI in assay [7] and in assay [8] was more than 100 µM in each case.

With `CCOC(=O)Cc1nc2sc(S(N)(=O)=O)nn2c1Br`, the TGI in assay [1] is more than 100 µM; in assay [2] it was more than 100 µM; in assay [3], 63.9 µM; in assay [4], more than 100 µM; in assay [5], 77.5 µM; in assay [6], 44.3 µM. Moreover, in assay [8], the TGI came out at 79.4 µM.

On to `O=C/C=C/c1ccco1`, for which the TGI in assay [1], in assay [2], in assay [3], in assay [4], in assay [5] and in assay [6] was more than 100 µM in each case. Besides, the TGI in assay [7] and in assay [8] was more than 100 µM in each case.

As for `CN(C)c1nncc2[nH]cnc12`, the TGI in assay [1], in assay [2], in assay [3], in assay [4], in assay [5] and in assay [7] was more than 100 µM each time. Moreover, the TGI in assay [8] is more than 100 µM.

With `N#C/C(=C\c1cc(Cl)cc(Cl)c1)c1ccccn1`, the TGI in assay [1], in assay [2], in assay [3], in assay [4], in assay [5] and in assay [7] was more than 100 µM in each case. Moreover, in assay [8], the TGI amounted to 60 µM.

For `O=C(CCCCCCC(=O)Nc1cccnc1)NO`, the TGI in assay [1] is more than 100 µM; in assay [2], more than 61 µM; in assay [3] it was more than 100 µM; in assay [4] it was more than 100 µM; in assay [5], more than 100 µM; in assay [6], 38.9 µM. In addition, the TGI in assay [7] and in assay [8] was more than 100 µM throughout.

Consider `COc1ccc(OC)c(CC2CCc3nc(N)nc(N)c3C2)c1` (stereo unspecified), for which the TGI in assay [1] was 32 µM; in assay [3] it was 52.7 µM; in assay [4], more than 100 µM; in assay [5], more than 72.8 µM; in assay [6] it was 25.6 µM; in assay [7] it was more than 100 µM. In assay [8], the TGI is more than 100 µM.

For the compound `CCOc1ccc(/C=N/[N+](C)(C)C)cc1OCC`, the TGI in assay [1], in assay [2], in assay [3], in assay [4], in assay [5] and in assay [6] was more than 10 µM throughout. Also, in assay [7], the TGI is more than 10 µM.

For `Cc1ccc(-n2[nH]nc(C#N)c2=O)cc1`, the TGI in assay [1], in assay [2], in assay [3], in assay [4], in assay [5] and in assay [7] was more than 100 µM each time. Besides, the TGI in assay [8] was more than 100 µM.

For the compound `O=C1/C(=C/c2ccc(Cl)cc2)N=C(c2ccccc2)N1CCc1cccs1`, the GI50 in assay [1] was 18.4 µM; in assay [2] it was 31.7 µM; in assay [3], 13 µM; in assay [4], 31.4 µM; in assay [5], 19.3 µM; in assay [6], 8.52 µM. Further, the GI50 in assay [7] is 16.5 µM; in assay [8], 13.8 µM. Also, the TGI in assay [1], in assay [2], in assay [3], in assay [4], in assay [5] and in assay [6] was more than 100 µM in each case. The TGI in assay [7] and in assay [8] was more than 100 µM in each case.

`CC(C)(C)OC(=O)NCCCCC(NC(=O)OCC1c2ccccc2-c2ccccc21)C(=O)N1CCCC1C(=O)NCC(N)=O` (stereo not drawn) (Fmoc-Lys(Boc)-Pro-Gly-NH2; configuration not given here): the TGI in assay [1] was more than 100 µM; in assay [2], more than 100 µM; in assay [3] it was more than 100 µM; in assay [4], more than 100 µM; in assay [5], 30.1 µM; in assay [6] it was 40 µM. Also, the TGI in assay [7] is 77.3 µM; in assay [8], more than 100 µM.
